Laboratory results taken from patent publication US20040133938A1, “Use of lipoic acid in plant culture media” (priority 2002, published 2004).

Test system: A3244 soybean seed axis explants
Assay: Soybean Agrobacterium transformation, lipoic acid in co-culture media
Assay type: cell-based
Experimental: Dry A3244 soybean seeds were germinated by soaking in sterile distilled water (SDW) for three minutes, drained and allowed to slowly imbibe for 2 hours at which time Bean Germination Media (BGM) was added. At approximately 12 hours, seed axis explants were isolated by removing seed coats and cotyledons. Inoculation occurred 14 hours after the addition of SDW.
Explants were placed into sterile Plantcons™ with 20 mL of pMON15737/ABI (FIG. 3) and resuspended to an optical density A660 of approximately 0.3 in 1/10 Gamborg's B5 media (Gamborg et al., Exp. Cell Res., 50:151-158, 1968) containing 3% glucose, 1.68 mg/L BAP, 3.9 g/L MES, […] acetosyringone, 1 mM galactronic acid, and 0.25 mg/L GA3. Each Plantcon™ was sonicated for 20 seconds in a L&R Quantrex S140 sonicator that contained SDW+0.1% Triton X100 in the bath. Plantcons™ were held in place at approximately 2.5 cm below the surface of the bath liquid. Following sonication, explants were inoculated for an additional hour while shaking gently on an orbital shaker at ˜90 RPM. After inoculation, the Agrobacterium was removed. […] Co-culture media consisted of 1/10 Gamborg's B5 media containing 5% glucose, 1.68 mg/L BAP, 3.9 g/L, […] acetosyringone, 1 mM galactronic acid and 0.25 mg/L GA3. Explants were incubated at 23° C. in the dark for 3 days.
Lipoic acid was dissolved in either ethanol or potassium hydroxide to make 100 mg/mL stock. […]
Following co-culture, explants were transferred to solid Woody Plant Media (WPM) (McCown & Lloyd, Proc. International Plant Propagation Soc., 30:421, 1981) containing 2% sucrose, 200 mg/L carbenicillin, 100 mg/L Timetin (ticarcillin+clavulanic acid), +/−100 mg/L cefotaxime, 60 mg/L Benomyl, and 75 μM glyphosate. All explants were placed at 28° C., 16-hour light/8-hour dark photoperiod. A second transfer to the same media was made after two weeks.
Shoots were cut 5-8 weeks post-inoculation and rooted on Bean Rooting Media (BRM) containing 25 μM glyphosate and 100 mg/L Timetin.

[1] = 5 uM LA, KOH, 248 explants, Table 12
[2] = 5 uM LA, 244 explants, Table 12
[3] = 10 uM LA, KOH, 240 explants, Table 12
[4] = 10 uM LA, 247 explants, Table 12
[5] = 50 uM LA, KOH, 246 explants, Table 12
[6] = 50 uM LA, 242 explants, Table 12
[7] = 100 uM LA, KOH, 246 explants, Table 12
[8] = 100 uM LA, 396 explants, Table 12
[9] = 250 uM LA, KOH, 505 explants, Table 11
[10] = 250 uM LA, 246 explants, Table 12
[11] = 250 uM LA, 486 explants, Table 11
[12] = 500 uM LA*, 171 explants, Table 12
[13] = 500 uM LA, KOH, 462 explants, Table 11
[14] = 500 uM LA, 531 explants, Table 11
[15] = 750 uM LA, KOH, 454 explants, Table 11
[16] = 750 uM LA, 535 explants, Table 11
[17] = 1000 uM LA, KOH, 471 explants, Table 11
[18] = 1000 uM LA, 530 explants, Table 11
[19] = 1500 uM LA, KOH, 498 explants, Table 11
[20] = 1500 uM LA, 538 explants, Table 11

In the case of `O=C(O)CCCCC1CCSS1` (centres unmarked) [lipoic acid, 1,2-dithiolane-3-pentanoic acid], the “Shooting Frequency” value [1] is reported as 5%, the “Total Rooted Plants” value [1] is reported as 2 and the “Total Shoots” value [1] is reported as 13. For the same molecule, the “Transformation Efficiency” value [1] was 0.8%, the “Shooting Frequency” value [2] was 7% and the “Total Rooted Plants” value [2] was 3. For the same molecule, the “Total Shoots” value [2] was 18, the “Transformation Efficiency” value [2] was 1.2% and the “Shooting Frequency” value [3] was 5%. The “Total Rooted Plants” value [3] was 0, the “Total Shoots” value [3] was 13 and the “Transformation Efficiency” value [3] was 0.0%. For the same molecule, the “Shooting Frequency” value [4] was 6%, the “Total Rooted Plants” value [4] was 0 and the “Total Shoots” value [4] was 14. The “Transformation Efficiency” value [4] was 0.0%, the “Shooting Frequency” value [5] was 7% and the “Total Rooted Plants” value [5] was 1. For the same molecule, the “Total Shoots” value [5] was 17, the “Transformation Efficiency” value [5] was 0.4% and the “Shooting Frequency” value [6] was 9%. The “Total Rooted Plants” value [6] was 1, the “Total Shoots” value [6] was 22 and the “Transformation Efficiency” value [6] was 0.4%. For the same molecule, the “Shooting Frequency” value [7] was 7%, the “Total Rooted Plants” value [7] was 2 and the “Total Shoots” value [7] was 18. The “Transformation Efficiency” value [7] was 0.8%, the “Shooting Frequency” value [8] was 10% and the “Total Rooted Plants” value [8] was 3. The “Total Shoots” value [8] was 39, the “Transformation Efficiency” value [8] was 0.8% and the “Rooted Plants” value [9] was 13. The “Shooting Frequency” value [9] was 12%, the “Total Shoots” value [9] was 63 and the “Transformation Efficiency” value [9] was 2.6%. For the same molecule, the “Shooting Frequency” value [10] was 13%, the “Total Rooted Plants” value [10] was 9 and the “Total Shoots” value [10] was 32. For the same molecule, the “Transformation Efficiency” value [10] was 3.7%, the “Rooted Plants” value [11] was 7 and the “Shooting Frequency” value [11] was 14%. The “Total Shoots” value [11] was 69, the “Transformation Efficiency” value [11] was 1.4% and the “Shooting Frequency” value [12] was 11%. The “Total Rooted Plants” value [12] was 5, the “Total Shoots” value [12] was 19 and the “Transformation Efficiency” value [12] was 2.9%. The “Rooted Plants” value [13] was 7, the “Shooting Frequency” value [13] was 10% and the “Total Shoots” value [13] was 44. The “Transformation Efficiency” value [13] was 1.5%, the “Rooted Plants” value [14] was 9 and the “Shooting Frequency” value [14] was 12%. For the same molecule, the “Total Shoots” value [14] was 64, the “Transformation Efficiency” value [14] was 1.7% and the “Rooted Plants” value [15] was 7. For the same molecule, the “Shooting Frequency” value [15] was 12%, the “Total Shoots” value [15] was 56 and the “Transformation Efficiency” value [15] was 1.5%. For the same molecule, the “Rooted Plants” value [16] was 9, the “Shooting Frequency” value [16] was 12% and the “Total Shoots” value [16] was 62. For the same molecule, the “Transformation Efficiency” value [16] was 1.7%, the “Rooted Plants” value [17] was 6 and the “Shooting Frequency” value [17] was 8%. For the same molecule, the “Total Shoots” value [17] was 40, the “Transformation Efficiency” value [17] was 1.3% and the “Rooted Plants” value [18] was 12. The “Shooting Frequency” value [18] was 10%, the “Total Shoots” value [18] was 52 and the “Transformation Efficiency” value [18] was 2.3%. The “Rooted Plants” value [19] was 10, the “Shooting Frequency” value [19] was 11% and the “Total Shoots” value [19] was 57. The “Transformation Efficiency” value [19] was 2.0%, the “Rooted Plants” value [20] was 13 and the “Shooting Frequency” value [20] was 10%. For the same molecule, the “Total Shoots” value [20] was 53, the “Transformation Efficiency” value [20] was 2.4% and the “increase of transformation frequency” value (lipoic acid concentration of 250 μM) was “about ninefold”. The “effect on transformation efficiency, shoot and rooted plant production” value (lipoic acid concentrations of 250 μM to 1500 μM) was “increased transformation efficiency” and the “effectiveness in the soybean transformation protocol” value (low levels of lipoic acid (5 to 100 μM)) was “not particularly effective”.
